These results are taken from patent US9650395B2, “Antibacterial compounds and methods for use” (PTC Therapeutics, Inc., priority 2011, dated 2017).

≈ marks a conversion by molar mass, not a printed value.

Experiment [1] concerns super sensitive Gram-negative Escherichia coli (E. coli) BAS849. Nature of the experiment: Antibacterial activity, microbroth dilution MIC, E. coli BAS849. The format is cell-based. The conditions noted are these: Escherichia coli; E. coli BAS849, microbroth dilution; read-out: MIC, BAS849.
The subject of experiment [2] is control Gram-negative E. coli 25922 strain. In words: Antibacterial activity, microbroth dilution MIC, E. coli 25922. Type of experiment: cell-based, Escherichia coli. The conditions noted are these: Escherichia coli; E. coli 25922, microbroth dilution; read-out: MIC, 25922. Background: Dilution methods test growth across graded concentrations, often in twofold steps.

Experiment [3] has as its system Gram-positive Staphylococcus aureus (S. aureus) 29213. Nature of the experiment: Antibacterial activity, microbroth dilution MIC, S. aureus 29213. The format is cell-based. Particulars: Staphylococcus aureus; S. aureus 29213, microbroth dilution; read-out: MIC, 29213.
The subject of experiment [4] is quinolone resistant E. coli LZ3111. Nature of the experiment: Antibacterial activity, MIC, quinolone resistant E. coli LZ3111. Type of experiment: cell-based, Escherichia coli. The conditions noted are these: Escherichia coli, read-out: MIC, LZ3111. An excerpt:
(§1) The antibacterial activity from a microbroth dilution method may be presented as the minimum inhibitory concentration (MIC in […]). The MIC value is the lowest concentration of a drug which prevents macroscopically visible bacterial growth under test conditions.
Mutations in these regions are known to confer a high level resistance to the quinolone class of antibiotics.

In experiment [5] the test system is E. coli ELZ4000 (MDR clinical isolate). In words: Antibacterial activity, MIC, MDR E. coli ELZ4000. Type of experiment: cell-based, Escherichia coli. The conditions noted are these: Escherichia coli; E. coli ELZ4000, MDR clinical isolate; read-out: MIC ELZ4000.
The test system of experiment [6] is E. coli ELZ4251 (MDR clinical isolate). Nature of the experiment: Antibacterial activity, MIC, MDR E. coli ELZ4251. The conditions noted are these: Escherichia coli, E. coli ELZ4251, MDR clinical isolate; read-out: MIC ELZ4251. Type of experiment: cell-based, Escherichia coli.
Experiment [7] concerns Pseudomonas aeruginosa (P. aeruginosa) 27853. In words: Antibacterial activity, MIC, P. aeruginosa 27853. Type of experiment: cell-based. Particulars: Pseudomonas aeruginosa, P. aeruginosa 27853; read-out: MIC 27853.
Text: as §1
Antibacterial activity of test compounds against the Gram-negative bacterium Pseudomonas aeruginosa (P. aeruginosa) 27853 is shown in Table 5.

The subject of experiment [8] is Haemophilus influenzae (H. influenzae) 49247. In words: Antibacterial activity, MIC, H. influenzae 49247. Type of experiment: cell-based. The conditions noted are these: Haemophilus influenzae; H. influenzae 49247; read-out: MIC 49247.
Text: as §1
Antibacterial activity of test compounds against the Gram-negative bacteria Haemophilus influenzae (H. influenzae) 49247, Moraxella catarrhalis (M. catarrhalis) 25238 and Neisseria meningitidis (N. meningitidis) 13090 is shown in Table 6.

For experiment [9], the system named is Moraxella catarrhalis (M. catarrhalis) 25238. Nature of the experiment: Antibacterial activity, MIC, M. catarrhalis 25238. The conditions noted are these: Moraxella catarrhalis, M. catarrhalis 25238; read-out: MIC 25238. The format is cell-based.
The subject of experiment [10] is Neisseria meningitidis (N. meningitidis) 13090. In words: Antibacterial activity, MIC, N. meningitidis 13090. Type of experiment: cell-based. Particulars: Neisseria meningitidis; N. meningitidis 13090; read-out: MIC 13090.

`CCCc1cc(C(=O)O)c(=O)[nH]c1-c1ccc(N(C)C)cc1` [Cpd 8, 6-[4-(dimethylamino)phenyl]-2-oxo-5-propyl-1,2-dihydropyridine-3-carboxylic acid]: the MIC in experiment [1] was under 1 µg/mL; in [2], 3.5 to 12.5 µg/mL (≈ 11.7 to 41.6 µM); in experiment [3], 12.5 to 150 µg/mL (≈ 41.6 to 499 µM); in experiment [4], 12.5 to 150 µg/mL (≈ 41.6 to 499 µM); in experiment [5], 12.5 to 150 µg/mL (≈ 41.6 to 499 µM); in experiment [6] it was 12.5 to 150 µg/mL (≈ 41.6 to 499 µM). Further, the MIC in experiment [7] is 12.5 to 150 µg/mL (≈ 41.6 to 499 µM); in experiment [8] it was under 1 µg/mL; in experiment [9] it was under 1 µg/mL; in [10], under 1 µg/mL.

Turning to `CN(C)c1ccc(-c2[nH]c(=O)c(C(=O)O)cc2C2CC2)cc1` [Cpd 12, 5-cyclopropyl-6-[4-(dimethylamino)phenyl]-2-oxo-1,2-dihydropyridine-3-carboxylic acid], the MIC is under 1 µg/mL in experiment [1]; 3.5 to 12.5 µg/mL (≈ 11.7 to 41.9 µM) in [2]; 12.5 to 150 µg/mL (≈ 41.9 to 503 µM) in experiment [3]; 12.5 to 150 µg/mL (≈ 41.9 to 503 µM) in experiment [4]; 12.5 to 150 µg/mL (≈ 41.9 to 503 µM) in experiment [5]; 12.5 to 150 µg/mL (≈ 41.9 to 503 µM) in experiment [6]. The MIC in experiment [7] was 12.5 to 150 µg/mL (≈ 41.9 to 503 µM); in experiment [8] it was under 1 µg/mL; in [9] it was under 1 µg/mL; in experiment [10] it was under 1 µg/mL.

For the compound `CCc1c(-c2ccc(N3CCC3)cc2)[nH]c(=O)c(C(=O)O)c1O` [Cpd 83, 6-[4-(azetidin-1-yl)phenyl]-5-ethyl-4-hydroxy-2-oxo-1,2-dihydropyridine-3-carboxylic acid], the MIC was under 1 µg/mL in experiment [1]; 3.5 to 12.5 µg/mL (≈ 11.1 to 39.8 µM) in experiment [2]; 3.5 to 12.5 µg/mL (≈ 11.1 to 39.8 µM) in [3]; 12.5 to 150 µg/mL (≈ 39.8 to 477 µM) in experiment [4]; 12.5 to 150 µg/mL (≈ 39.8 to 477 µM) in experiment [5]; 12.5 to 150 µg/mL (≈ 39.8 to 477 µM) in experiment [6]. Further, the MIC was 12.5 to 150 µg/mL (≈ 39.8 to 477 µM) in experiment [7], under 1 µg/mL in experiment [8], under 1 µg/mL in experiment [9] and under 1 µg/mL in experiment [10].

For the compound `CCc1cc(C(=O)O)c(=O)[nH]c1-c1ccc(N2C[C@@H](N)[C@H](OC)C2)cc1.Cl` [Cpd 134, 6-{4-[(3R,4R)-3-amino-4-methoxypyrrolidin-1-yl]phenyl}-5-ethyl-2-oxo-1,2-dihydropyridine-3-carboxylic acid hydrochloride], the MIC in [1] was under 1 µg/mL; in experiment [2], 3.5 to 12.5 µg/mL; in experiment [3], 12.5 to 150 µg/mL; in [4], 12.5 to 150 µg/mL; in experiment [5] it was 12.5 to 150 µg/mL; in experiment [6], 12.5 to 150 µg/mL. In addition, the MIC in experiment [8] was under 1 µg/mL; in [9], 3.5 to 12.5 µg/mL; in experiment [10] it was under 1 µg/mL.

In the case of `C=CCN(CC=C)c1ccc(-c2[nH]c(=O)c(C(=O)O)c(O)c2CC)cc1` [Cpd 300, 6-{4-[di(prop-2-en-1-yl)amino]phenyl}-5-ethyl-4-hydroxy-2-oxo-1,2-dihydropyridine-3-carboxylic acid], the MIC in [1] was 1 to 3.5 µg/mL (≈ 2.82 to 9.88 µM); in experiment [2], 12.5 to 150 µg/mL (≈ 35.3 to 423 µM); in [3], 1 to 3.5 µg/mL (≈ 2.82 to 9.88 µM); in experiment [4], 12.5 to 150 µg/mL (≈ 35.3 to 423 µM); in [5], 12.5 to 150 µg/mL (≈ 35.3 to 423 µM); in experiment [6], 12.5 to 150 µg/mL (≈ 35.3 to 423 µM). Besides, the MIC in experiment [8] is 12.5 to 150 µg/mL (≈ 35.3 to 423 µM); in experiment [9] it was under 1 µg/mL; in experiment [10], under 1 µg/mL.

Consider `CCc1c(-c2ccc(N(C)C)s2)[nH]c(=O)c(C(=O)O)c1O` [Cpd 306, 6-[5-(dimethylamino)thiophen-2-yl]-5-ethyl-4-hydroxy-2-oxo-1,2-dihydropyridine-3-carboxylic acid], for which the MIC is under 1 µg/mL in experiment [1]; 3.5 to 12.5 µg/mL (≈ 11.4 to 40.5 µM) in [2]; 3.5 to 12.5 µg/mL (≈ 11.4 to 40.5 µM) in [3]; 12.5 to 150 µg/mL (≈ 40.5 to 486 µM) in experiment [4]; 12.5 to 150 µg/mL (≈ 40.5 to 486 µM) in [5]; 12.5 to 150 µg/mL (≈ 40.5 to 486 µM) in experiment [6]. The MIC in experiment [8], in experiment [9] and in experiment [10] was under 1 µg/mL throughout.
